Experimental data: ChEMBL document CHEMBL1136123, “3,5,6-Trisubstituted naphthostyrils as CDK2 inhibitors” (Bioorg Med Chem Lett, 2003)

How the values were obtained:
[1] = biological target: Cyclin-dependent kinase 2 (Homo sapiens, UniProt P24941); test: In vitro inhibition of Cyclin-dependent kinase 2
MDA-MB-435 = test: Inhibitory concentration against human breast carcinoma cell line proliferation; format: functional, cell-based
RKO = test: Inhibitory concentration against human colon cancer (RKO) cell line proliferation; format: functional, cell-based
[2] = Inhibition of blocked progression of G0 synchronized cell into S phase using G1-S cell cycle progression assay; format: functional

Row | Structure (SMILES) | IC50 [1] | IC50 (MDA-MB-435) | IC50 (RKO) | IC50 [2]
1 | NCCS(=O)(=O)c1cc(-c2ccc[nH]2)c2c3c(ccc(F)c13)NC2=O | 23 nM | 1080 nM | 430 nM | 
2 | O=C1Nc2ccc(F)c3c(S(=O)(=O)CCO)cc(-c4ccc[nH]4)c1c23 | 15 nM | 3200 nM | 1200 nM | 
3 | CCOc1cc(-c2ccc[nH]2)c2c3c(ccc(F)c13)NC2=O | 77 nM |  |  | 
4 | NCCSc1cc(-c2ccc[nH]2)c2c3c(ccc(F)c13)NC2=O | 3 nM | 310 nM | 100 nM | 810 nM
5 | NCCOc1cc(-c2ccc[nH]2)c2c3c(ccc(F)c13)NC2=O | 12 nM | 380 nM | 110 nM | 910 nM
6 | O=C1Nc2ccc(F)c3ccc(-c4ccc[nH]4)c1c23 | 204 nM | 2280 nM | 5950 nM | > 30000 nM
7 | CC(=O)NCCNc1cc(-c2ccc[nH]2)c2c3c(ccc(F)c13)NC2=O | 127 nM |  |  | 
8 | NCCCc1cc(-c2ccc[nH]2)c2c3c(ccc(F)c13)NC2=O | 7 nM |  |  | 
9 | N#CCCc1cc(-c2ccc[nH]2)c2c3c(ccc(F)c13)NC2=O | 5 nM |  |  | 
10 | O=C1Nc2ccc(F)c3c(SC[C@@H]4CCCN4)cc(-c4ccc[nH]4)c1c23 | 18 nM | 210 nM | 60 nM | 
11 | NCC[S+]([O-])c1cc(-c2ccc[nH]2)c2c3c(ccc(F)c13)NC2=O (centres undefined) | 28 nM | 1210 nM | 420 nM | 1870 nM
12 | O=C1Nc2ccc(F)c3c(OCCCO)cc(-c4ccc[nH]4)c1c23 | 18 nM |  |  | 
13 | O=C1Nc2ccc(F)c3c(S[C@H]4CCNC4)cc(-c4ccc[nH]4)c1c23 | 5 nM | 120 nM | 70 nM | 
14 | O=C1Nc2ccc(F)c3c(OCCO)cc(-c4ccc[nH]4)c1c23 | 62 nM | 580 nM | 500 nM | 10900 nM
15 | NCCCNc1cc(-c2ccc[nH]2)c2c3c(ccc(F)c13)NC2=O | 48 nM | 70 nM | 120 nM | 2040 nM
16 | CC(=O)OCCCOc1cc(-c2ccc[nH]2)c2c3c(ccc(F)c13)NC2=O | > 1000 nM |  |  | 
17 | CCc1cc(-c2ccc[nH]2)c2c3c(ccc(F)c13)NC2=O | 72 nM |  |  | 
18 | Cc1cc(-c2ccc[nH]2)c2c3c(ccc(F)c13)NC2=O | 376 nM |  |  | 
19 | NCCNc1cc(-c2ccc[nH]2)c2c3c(ccc(F)c13)NC2=O |  |  |  | 1490 nM
20 | CC(C)(N)CNc1cc(-c2ccc[nH]2)c2c3c(ccc(F)c13)NC2=O | 65 nM | 160 nM | 110 nM | 1670 nM
21 | O=C1Nc2ccc(F)c3c(SCCO)cc(-c4ccc[nH]4)c1c23 | 14 nM | 1730 nM | 1480 nM | 2740 nM
22 | CC(C)Cc1cc(-c2ccc[nH]2)c2c3c(ccc(F)c13)NC2=O | 124 nM |  |  | 
23 | O=C1Nc2ccc(F)c3c(NCCO)cc(-c4ccc[nH]4)c1c23 | 54 nM | 620 nM | 740 nM | 2390 nM
24 | COc1cc(-c2ccc[nH]2)c2c3c(ccc(F)c13)NC2=O | 18 nM | 890 nM | 750 nM | 7100 nM
25 | CC(C)(C)OC(=O)NCCNc1cc(-c2ccc[nH]2)c2c3c(ccc(F)c13)NC2=O | 5500 nM |  |  | 
26 | CCN(CC)CCNc1cc(-c2ccc[nH]2)c2c3c(ccc(F)c13)NC2=O | 294 nM |  |  | 
